*1 amine or outer side, *2 acyl side, *3 side chain or, on linkers, in order; H or OH if unused. Where a SMILES comes first, the peptide text is derived from it. Bridges are numbered along the chain shown (N, C = ends). [ ]: non-standard residue; d: D form. The star is where a group is joined. X3 = O=C([C@H](CCCNC[C@@H](O)[C@H](O)[C@H](O)[C@@H](O)[C@H](O)CO)N[*:1])[*:2]; X4 = O=C([C@H](CCNC[C@@H](O)[C@H](O)[C@H](O)[C@@H](O)[C@H](O)CO)N[*:1])[*:2]; Phe(4-CF3) = N[C@@H](Cc1ccc(C(F)(F)F)cc1)C(=O)O; Phe(4-COOH) = N[C@@H](Cc1ccc(C(=O)O)cc1)C(=O)O; Bip = N[C@@H](Cc1ccc(-c2ccccc2)cc1)C(=O)O; Phe(3-Me) = Cc1cccc(C[C@H](N)C(=O)O)c1; Val(3-OH) = CC(C)(O)[C@H](N)C(=O)O; Cha = N[C@@H](CC1CCCCC1)C(=O)O; NMeNle = CCCC[C@H](NC)C(=O)O; Carboxymethyl = O=C(O)C*; NMeA = CN[C@@H](C)C(=O)O; NMeAib = CNC(C)(C)C(=O)O; Nle = CCCC[C@H](N)C(=O)O; Orn = NCCC[C@H](N)C(=O)O; Pra = C#CC[C@H](N)C(=O)O; Dab = NCC[C@H](N)C(=O)O; Nva = CCC[C@H](N)C(=O)O; CF3 = FC(F)(F)*

T1 sequence (Q15116 25-288): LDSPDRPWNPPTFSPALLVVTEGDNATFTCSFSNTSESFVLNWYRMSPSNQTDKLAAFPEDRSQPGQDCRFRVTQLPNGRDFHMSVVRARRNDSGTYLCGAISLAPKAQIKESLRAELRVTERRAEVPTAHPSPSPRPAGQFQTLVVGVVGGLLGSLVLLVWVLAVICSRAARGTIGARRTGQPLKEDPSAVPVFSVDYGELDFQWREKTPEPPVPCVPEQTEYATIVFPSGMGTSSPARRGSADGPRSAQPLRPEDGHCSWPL

The assay has as its target T1, human PD-1 / PD-L1-Ig binding on Jurkat cell line over-expressing human PD-1 (Jurkat-PD-1) (Homo sapiens, UniProt Q15116).
T1 construct: expressed in transfected cells; host or cells: Jurkat
The assay can be described thus: Jurkat-PD-1 Cell Binding High-Content Screening Assay (CBA). The assay is classed as cell-based. The note with it: Jurkat-PD-1 cells, PE-labeled PD-L1-Ig 20 nM final; read-out: Jurkat HPD1_PDL1 IC50. The method, boiled down:
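PE-PD-L1-Ig 20 nM final; cells in DMEM/10% FCS; cpd pre-incubation 2 h, 37° C; ligand 1 h; PFA fix + Hoechst 33342; high-content imaging read-out.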
As a reminder, the IC50 is the concentration needed to halve the response being measured. Regarding `CCCC[C@H]1C(=O)N[C@@H](Cc2ccc(C(=O)O)cc2)C(=O)N[C@@H](CC(=O)O)C(=O)N[C@@H](Cc2cccc(C)c2)C(=O)N[C@@H](Cc2ccc(OCC(=O)O)cc2)C(=O)N[C@@H](Cc2ccc(-c3ccccc3)cc2)C(=O)N[C@@H](Cc2ccc(OCC(=O)O)cc2)C(=O)N[C@@H](CCCN)C(=O)N[C@H](CC(C)C)C(=O)N[C@@H](CCN)C(=O)N[C@@H](CC2CCCCC2)C(=O)N[C@@H](C(C)(C)O)C(=O)N[C@@H](CCC(=O)O)C(=O)N[C@H](C(=O)N[C@@H](CCN)C(N)=O)CSCC(=O)N1C` [Compound 2688] ({CH2CO}-[NMeNle][Phe(4-COOH)]D[Phe(3-Me)]Y(Carboxymethyl)[Bip]Y(Carboxymethyl)[Orn][dL][Dab][Cha][Val(3-OH)]EC[Dab]-NH2; thioether N-14), the IC50 is 41.3 nM. The result for `Cc1cccc(C[C@@H]2NC(=O)[C@H](CC(=O)O)NC(=O)[C@H](Cc3ccc(C(=O)O)cc3)NC(=O)C(C)(C)N(C)C(=O)CSC[C@@H](C(=O)N[C@@H](CCN)C(N)=O)NC(=O)[C@H](CCC(=O)O)NC(=O)[C@H](C(C)(C)O)NC(=O)[C@H](CC3CCCCC3)NC(=O)[C@H](CCN)NC(=O)[C@@H](CC(C)C)NC(=O)[C@H](CCCN)NC(=O)[C@H](Cc3ccc(OCC(=O)O)cc3)NC(=O)[C@H](Cc3ccc(-c4ccccc4)cc3)NC(=O)[C@H](Cc3ccc(OCC(=O)O)cc3)NC2=O)c1` [Compound 2689] ({CH2CO}-[NMeAib][Phe(4-COOH)]D[Phe(3-Me)]Y(Carboxymethyl)[Bip]Y(Carboxymethyl)[Orn][dL][Dab][Cha][Val(3-OH)]EC[Dab]-NH2; thioether N-14) reads 411 nM. With `Cc1cccc(C[C@@H]2NC(=O)[C@H](CC(=O)O)NC(=O)[C@H](Cc3ccc(C(=O)O)cc3)NC(=O)[C@H](C)N(C)C(=O)CSC[C@@H](C(=O)N[C@@H](CCN)C(N)=O)NC(=O)[C@H](CCC(=O)O)NC(=O)[C@H](C(C)(C)O)NC(=O)[C@H](CC3CCCCC3)NC(=O)[C@H](CCN)NC(=O)[C@@H](CC(C)C)NC(=O)[C@H](CCCN)NC(=O)[C@H](Cc3ccc(OCC(=O)O)cc3)NC(=O)[C@H](Cc3ccc(-c4ccccc4)cc3)NC(=O)[C@H](Cc3ccc(OCC(=O)O)cc3)NC2=O)c1` [Compound 2690] ({CH2CO}-[NMeA][Phe(4-COOH)]D[Phe(3-Me)]Y(Carboxymethyl)[Bip]Y(Carboxymethyl)[Orn][dL][Dab][Cha][Val(3-OH)]EC[Dab]-NH2; thioether N-14), the IC50 amounted to 481 nM. The result for `Cc1cccc(C[C@@H]2NC(=O)[C@H](CC(=O)O)NC(=O)[C@H](Cc3ccc(OCC(=O)O)cc3)NC(=O)[C@H](Cc3ccc(C(F)(F)F)cc3)NC(=O)CSC[C@@H](C(=O)N[C@@H](CCN)C(N)=O)NC(=O)[C@H](CCC(=O)O)NC(=O)[C@H](C(C)(C)O)NC(=O)[C@H](CC3CCCCC3)NC(=O)[C@H](CCN)NC(=O)[C@@H](CC(C)C)NC(=O)[C@H](CCCN)NC(=O)[C@H](Cc3ccc(OCC(=O)O)cc3)NC(=O)[C@H](Cc3ccc(-c4ccccc4)cc3)NC(=O)[C@H](Cc3ccc(OCC(=O)O)cc3)NC2=O)c1` [Compound 2691] ({CH2CO}-[Phe(4-CF3)]Y(Carboxymethyl)D[Phe(3-Me)]Y(Carboxymethyl)[Bip]Y(Carboxymethyl)[Orn][dL][Dab][Cha][Val(3-OH)]EC[Dab]-NH2; thioether N-14) reads 6.8 nM; that for `COc1ccc(C[C@@H]2NC(=O)CSC[C@@H](C(=O)N[C@@H](CCN)C(N)=O)NC(=O)[C@H](CCC(=O)O)NC(=O)[C@H](C(C)(C)O)NC(=O)[C@H](CC3CCCCC3)NC(=O)[C@H](CCN)NC(=O)[C@@H](CC(C)C)NC(=O)[C@H](CCCN)NC(=O)[C@H](Cc3ccc(OCC(=O)O)cc3)NC(=O)[C@H](Cc3ccc(-c4ccccc4)cc3)NC(=O)[C@H](Cc3ccc(OCC(=O)O)cc3)NC(=O)[C@H](Cc3cccc(C)c3)NC(=O)[C@H](CC(=O)O)NC(=O)[C@H](Cc3ccc(OCC(=O)O)cc3)NC2=O)cc1` [Compound 2692] ({CH2CO}-Y(Me)Y(Carboxymethyl)D[Phe(3-Me)]Y(Carboxymethyl)[Bip]Y(Carboxymethyl)[Orn][dL][Dab][Cha][Val(3-OH)]EC[Dab]-NH2; thioether N-14), 4.7 nM.

As to `Cc1cccc(C[C@@H]2NC(=O)[C@H](CC(=O)O)NC(=O)[C@H](Cc3ccc(OC(F)(F)F)cc3)NC(=O)[C@H](CCN)NC(=O)CSC[C@@H](C(=O)N[C@@H](CCN)C(N)=O)NC(=O)[C@H](CCC(=O)O)NC(=O)[C@H](C(C)(C)O)NC(=O)[C@H](CC3CCCCC3)NC(=O)[C@H](CCN)NC(=O)[C@@H](CC(C)C)NC(=O)[C@H](CCCN)NC(=O)[C@H](Cc3ccc(OCC(=O)O)cc3)NC(=O)[C@H](Cc3ccc(-c4ccccc4)cc3)NC(=O)[C@H](Cc3ccc(OCC(=O)O)cc3)NC2=O)c1` [Compound 2693] ({CH2CO}-[Dab]Y(CF3)D[Phe(3-Me)]Y(Carboxymethyl)[Bip]Y(Carboxymethyl)[Orn][dL][Dab][Cha][Val(3-OH)]EC[Dab]-NH2; thioether N-14), the IC50 came out at 42.4 nM. In the case of `Cc1cccc(C[C@@H]2NC(=O)[C@H](CC(=O)O)NC(=O)[C@H](Cc3ccc(OCC(=O)O)cc3)NC(=O)[C@H](CCN)NC(=O)CSC[C@@H](C(=O)N[C@@H](CCN)C(N)=O)NC(=O)[C@H](CCC(=O)O)NC(=O)[C@H](C(C)(C)O)NC(=O)[C@H](CC3CCCCC3)NC(=O)[C@H](CCN)NC(=O)[C@@H](CC(C)C)NC(=O)[C@H](CCCN)NC(=O)[C@H](Cc3ccc(OC(F)(F)F)cc3)NC(=O)[C@H](Cc3ccc(-c4ccccc4)cc3)NC(=O)[C@H](Cc3ccc(OCC(=O)O)cc3)NC2=O)c1` [Compound 2694] ({CH2CO}-[Dab]Y(Carboxymethyl)D[Phe(3-Me)]Y(Carboxymethyl)[Bip]Y(CF3)[Orn][dL][Dab][Cha][Val(3-OH)]EC[Dab]-NH2; thioether N-14) it was 16.5 nM; in that of `C#CC[C@H](NC(=O)[C@H](C)NC(=O)[C@@H]1CSCC(=O)N[C@@H](CCN)C(=O)N[C@@H](Cc2ccc(OCC(=O)O)cc2)C(=O)N[C@@H](CC(=O)O)C(=O)N[C@@H](Cc2cccc(C)c2)C(=O)N[C@@H](Cc2ccc(OCC(=O)O)cc2)C(=O)N[C@@H](Cc2ccc(-c3ccccc3)cc2)C(=O)N[C@@H](Cc2ccc(OCC(=O)O)cc2)C(=O)N[C@@H](CCCN)C(=O)N[C@H](CC(C)C)C(=O)N[C@@H](CCN)C(=O)N[C@@H](CC2CCCCC2)C(=O)N[C@@H](C(C)(C)O)C(=O)N[C@@H](CCCC)C(=O)N1)C(=O)O` [Compound 2696] ({CH2CO}-[Dab]Y(Carboxymethyl)D[Phe(3-Me)]Y(Carboxymethyl)[Bip]Y(Carboxymethyl)[Orn][dL][Dab][Cha][Val(3-OH)][Nle]CA[Pra]-OH; thioether N-14), 17.1 nM. In the case of `C#CC[C@H](NC(=O)[C@H](C)NC(=O)[C@@H]1CSCC(=O)N[C@@H](CCN)C(=O)N[C@@H](Cc2ccc(OCC(=O)O)cc2)C(=O)N[C@@H](CC(=O)O)C(=O)N[C@@H](Cc2cccc(C)c2)C(=O)N[C@@H](Cc2ccc(OCC(=O)O)cc2)C(=O)N[C@@H](Cc2ccc(-c3ccccc3)cc2)C(=O)N[C@@H](Cc2ccc(OCC(=O)O)cc2)C(=O)N[C@@H](CCCN)C(=O)N[C@H](CC(C)C)C(=O)N[C@@H](CCN)C(=O)N[C@@H](CC2CCCCC2)C(=O)N[C@@H](C(C)(C)O)C(=O)N[C@@H](CCC)C(=O)N1)C(=O)O` [Compound 2697] ({CH2CO}-[Dab]Y(Carboxymethyl)D[Phe(3-Me)]Y(Carboxymethyl)[Bip]Y(Carboxymethyl)[Orn][dL][Dab][Cha][Val(3-OH)][Nva]CA[Pra]-OH; thioether N-14) it was 26.2 nM; in that of `C#CC[C@H](NC(=O)[C@@H]1CSCC(=O)N[C@@H](CCC)C(=O)N[C@@H](Cc2ccc(OCC(=O)O)cc2)C(=O)N[C@@H](CC(=O)O)C(=O)N[C@@H](Cc2cccc(C)c2)C(=O)N[C@@H](Cc2ccc(OCC(=O)O)cc2)C(=O)N[C@@H](Cc2ccc(-c3ccccc3)cc2)C(=O)N[C@@H](Cc2ccc(OCC(=O)O)cc2)C(=O)N[C@@H](CCCNC[C@@H](O)[C@H](O)[C@H](O)[C@@H](O)[C@H](O)CO)C(=O)N[C@H](CC(C)C)C(=O)N[C@@H](CCC)C(=O)N[C@@H](CC2CCCCC2)C(=O)N[C@@H](C(C)C)C(=O)N[C@@H](CCC(=O)O)C(=O)N1)C(=O)O` [Compound 2698] ({CH2CO}-[Nva]Y(Carboxymethyl)D[Phe(3-Me)]Y(Carboxymethyl)[Bip]Y(Carboxymethyl)[X3][dL][Nva][Cha]VEC[Pra]-OH; thioether N-14), 129 nM. In the case of `C#CC[C@H](NC(=O)[C@@H]1CSCC(=O)N[C@@H](CCC)C(=O)N[C@@H](Cc2ccc(OCC(=O)O)cc2)C(=O)N[C@@H](CC(=O)O)C(=O)N[C@@H](Cc2cccc(C)c2)C(=O)N[C@@H](Cc2ccc(OCC(=O)O)cc2)C(=O)N[C@@H](Cc2ccc(-c3ccccc3)cc2)C(=O)N[C@@H](Cc2ccc(OCC(=O)O)cc2)C(=O)N[C@@H](CCCC)C(=O)N[C@H](CC(C)C)C(=O)N[C@@H](CCNC[C@@H](O)[C@H](O)[C@H](O)[C@@H](O)[C@H](O)CO)C(=O)N[C@@H](CC2CCCCC2)C(=O)N[C@@H](C(C)C)C(=O)N[C@@H](CCC(=O)O)C(=O)N1)C(=O)O` [Compound 2699] ({CH2CO}-[Nva]Y(Carboxymethyl)D[Phe(3-Me)]Y(Carboxymethyl)[Bip]Y(Carboxymethyl)[Nle][dL][X4][Cha]VEC[Pra]-OH; thioether N-14) it was 239 nM; in that of `C#CC[C@H](NC(=O)[C@@H]1CSCC(=O)N[C@@H](CCC)C(=O)N[C@@H](Cc2ccc(OCC(=O)O)cc2)C(=O)N[C@@H](CC(=O)O)C(=O)N[C@@H](Cc2cccc(C)c2)C(=O)N[C@@H](Cc2ccc(OCC(=O)O)cc2)C(=O)N[C@@H](Cc2ccc(-c3ccccc3)cc2)C(=O)N[C@@H](Cc2ccc(OCC(=O)O)cc2)C(=O)N[C@@H](CCCNC[C@@H](O)[C@H](O)[C@H](O)[C@@H](O)[C@H](O)CO)C(=O)N[C@H](CC(C)C)C(=O)N[C@@H](CCNC[C@@H](O)[C@H](O)[C@H](O)[C@@H](O)[C@H](O)CO)C(=O)N[C@@H](CC2CCCCC2)C(=O)N[C@@H](C(C)C)C(=O)N[C@@H](CCC(=O)O)C(=O)N1)C(=O)O` [Compound 2700] ({CH2CO}-[Nva]Y(Carboxymethyl)D[Phe(3-Me)]Y(Carboxymethyl)[Bip]Y(Carboxymethyl)[X3][dL][X4][Cha]VEC[Pra]-OH; thioether N-14), 62.3 nM.

Source of the values: patent publication US20250163104A1, “MACROCYCLIC IMMUNOMODULATORS” (priority 2021, published 2025).
